From patent US20060251703A1, “Composition comprising an edible acid or its acidic salt and the use thereof” (priority 2003, published 2006) come the findings set out here.

Structures can show the parent of a compound that is named as a salt.

Assay [1] can be described thus: pH of saliva after ingesting citric acid. Type of assay: in vivo, human. To be noted: 700 mg citric acid ingested. The protocol:
Saliva is a kind of humors and, normally, has the pH of around 6.8. For the purpose of reference, to test the pH of the saliva of a person was carried out who had brushed before testing and ingesting 700 mg of citric acid. […]

Assay [2] has as its system mouse's leaching cell solution (abdominal cavity cells). In words: Drug depressing effect on histamine leaching when treated with 48/80 compound. Type of assay: cell-based. To be noted: testing drug 100(mg/ml); for inhibition at 100000 µg/mL: Mus musculus, read-out: Depression rate (%); for inhibition at 100000 µg/mL / Depression rate (%): 48/80 compound-induced histamine release; for Histamine Releasing rate (%): 48/80 compound, control 90.5, blank 9.0. As to the method:
This is a comparative testing of drug depressing effect on the amount of leaching histamines when is treated with 48/80 (Sigma, St. MO, USA) compound.
(1). Preparation of leaching cell solution from mouse body.
A mouse is killed and bloodletting. Then 10 ml of Locke's solution containing 0.1% bovine serum protein is injected into its abdominal cavity. After abdominal cavity being light massaged, the cavity is cut and the Locke's solution is removed. Cavity is washed with another 5 ml of Locke's solution, and this washed solution is added to the late one. This combined solution is centrifuged at 600 rpm for 5 minutes. The sediments are washed with 5 ml of cool Locke's solution. Adding 3 ml of cold Locke's solution to the washed sediments, then a leached cell solution of abdominal cavity is obtained. The composition of Locke's solution is: NaCL […], KCL 0.2%, CaCL2 0.15%, glucose 1.0%, in w/v, and the rest distillated water.
(2). Drug depressing effect on the amount of leaching histamines when treated with 48/80 compound.
Each testing compound listed in the table 1 is dissolved in a Ringer's solution containing 1% NaHCO3, and then diluted with Locke's solution to the indicated concentration. 1.0 ml of each of those solutions in last term is mixed with 0.3 ml of mouse's leaching cell solution and 0.5 ml of Locke's solution. This mixture is cultivated at 37° C. for 5 minutes. Then adding 0.2 ml of Locke's solution of 48/80 compound (1 mg/100 ml) and cultivated at 37° C. for 10 minutes. Then the reaction is stopped by cooling, and centrifuged at 2,500 rpm for 10 minutes. 1.7 ml of decanted solution and 0.3 ml of sediments are obtained. 0.1 ml of water and 0.2 ml of 100% trichloroacetic acid are added to the decanted solution. 1.5 ml of Locke's solution and 0.2 ml of 100% trichloroacetic acid are added to the sediments washed solution. They are cultivated at room temperature for 30 minutes. After cultivation, the mixtures are centrifuged at 3,000 rpm for 15 minutes, respectively. 0.35 ml of each of the former two solutions is sampled. In each sample, 1.65 ml of water, 0.4 ml of 1N NaOH and 0.1 ml of 0.5% OPT (o-phthalic aldehyde) in methanol are added and cultivated at room temperature for 4 minutes. The reaction is stopped by adding 0.2 ml of 2M citric acid. And finally, determine the amount of released histamines in the tested solution by fluorescence method. By the analysis, results of the depression rate of histamines could be calculated.
Locke's solution is instead of each drug in control group, and instead of both drug and 48/80 compound solution in blank group. The histamine releasing rate (A) can be calculated by following equation. […] Where (Hs) is the total amount of histamine in the decanted solution, and (Hr) is the total amount of histamine in the sediment. (A)=[(Hs)/{(Hs)+(Hr)}]×100%. Then the depression rate is: =100−[(A−A in blank group)/(A−A in control group)]×100%.

For assay [3], the system named is oxazolone-coated mouse ear. Kind of assay: Anti-delayed type allergy reaction (oxazolone ear inflammation). To be noted: 1 mg/ear coated, ears weighed after 24 hr; for inhibition in vivo at 1 mg/ear: Mus musculus, topical, read-out: Depression rate (%). In kind it is in vivo. As to the method: The weights of testing mice are ranging from 20 g to 30 g. They are coated with 0.1 ml of oxazolone alcohol solution (0.5 w/v %) on the hair cleaned part of abdomen. After five days, each of the listed drugs is dissolved in oxazolone acetone solution (0.5 w/v %), and 10 μl each of the solutions is token by micro pipette to coat on both sides of the right ear. After 24 hr, the mouse is killed by ether and punched a circle area of a diameter of 5.5 mm on both right and left ears in corresponding part by a puncher machine (portions of drug coated and the blank). The punched portions are weighed and the inflammation rates calculated. The control group are coated only with the oxazolone acetone solution (0.5 w/v %). The inflammation depressing rates of each drug are calculated by following equation: Inflammation depressing rate(%)=[(weight of drug coated right ear)−(weight of non-drug-coated left ear)]×100%/(weight of non-drug-coated left ear)

Assay [4] addresses xanthine oxidase. Kind of assay: Inhibition of xanthine oxidase. Type of assay: biochemical. To be noted: xanthine oxidase 0.01 u/ml, xanthine 5×10^−5M, pH=7.4, UV 295 nm; read-out: IC50 (concentration for depression of 50% activity of oxidase). The protocol: The production process of peroxide free radical can be tested by Xanthine oxidase substrate in vito (Fridowich, I., J. Biol. Chem., 215, 4053˜4057, 1970). […] The test of inhibiting xanthine oxidase is carried out by the method of H. M. Kalckar (J. Biol. Chem., 167, 429˜443, 1947). The basic principle is xanthine being acted by xanthine oxidase to form uric acid that is quantitative analyzed by photometric method. By the amount of determined uric acid, is calculated the degree of inhibiting effect for the activity of xanthine oxidase.
The testing process is, adding a final concentration of 0.01 u/ml of xanthine oxidase in 1 cm cell of photometric apparatus, and adding 0.05M (pH=7.4) of phosphoric acid buffer or inhabitant The reaction time is counted from the point at adding xanthene's to a final concentration reaching 5×10^−5M. For reducing the error arose by absorption of liquid in photometric analysis, the compound of xanthine oxidase, xanthine and drug are boiled for the reference. UV selected at 295 nm, data are recorded at an interval of 30 seconds for 2 minutes. The unit of activity change of xanthine oxidase is 0.001M/min. Calculate the inhibiting rate for each addition amount of drug. To use drug concentration (M) as a function of inhibiting rate (%), and to trace the data on a log scale paper, the 50% depression rate of the oxidase (IC50) could be determined by regression line method.

xanthine oxidase, sequence (P47989 whole entry, species assumed): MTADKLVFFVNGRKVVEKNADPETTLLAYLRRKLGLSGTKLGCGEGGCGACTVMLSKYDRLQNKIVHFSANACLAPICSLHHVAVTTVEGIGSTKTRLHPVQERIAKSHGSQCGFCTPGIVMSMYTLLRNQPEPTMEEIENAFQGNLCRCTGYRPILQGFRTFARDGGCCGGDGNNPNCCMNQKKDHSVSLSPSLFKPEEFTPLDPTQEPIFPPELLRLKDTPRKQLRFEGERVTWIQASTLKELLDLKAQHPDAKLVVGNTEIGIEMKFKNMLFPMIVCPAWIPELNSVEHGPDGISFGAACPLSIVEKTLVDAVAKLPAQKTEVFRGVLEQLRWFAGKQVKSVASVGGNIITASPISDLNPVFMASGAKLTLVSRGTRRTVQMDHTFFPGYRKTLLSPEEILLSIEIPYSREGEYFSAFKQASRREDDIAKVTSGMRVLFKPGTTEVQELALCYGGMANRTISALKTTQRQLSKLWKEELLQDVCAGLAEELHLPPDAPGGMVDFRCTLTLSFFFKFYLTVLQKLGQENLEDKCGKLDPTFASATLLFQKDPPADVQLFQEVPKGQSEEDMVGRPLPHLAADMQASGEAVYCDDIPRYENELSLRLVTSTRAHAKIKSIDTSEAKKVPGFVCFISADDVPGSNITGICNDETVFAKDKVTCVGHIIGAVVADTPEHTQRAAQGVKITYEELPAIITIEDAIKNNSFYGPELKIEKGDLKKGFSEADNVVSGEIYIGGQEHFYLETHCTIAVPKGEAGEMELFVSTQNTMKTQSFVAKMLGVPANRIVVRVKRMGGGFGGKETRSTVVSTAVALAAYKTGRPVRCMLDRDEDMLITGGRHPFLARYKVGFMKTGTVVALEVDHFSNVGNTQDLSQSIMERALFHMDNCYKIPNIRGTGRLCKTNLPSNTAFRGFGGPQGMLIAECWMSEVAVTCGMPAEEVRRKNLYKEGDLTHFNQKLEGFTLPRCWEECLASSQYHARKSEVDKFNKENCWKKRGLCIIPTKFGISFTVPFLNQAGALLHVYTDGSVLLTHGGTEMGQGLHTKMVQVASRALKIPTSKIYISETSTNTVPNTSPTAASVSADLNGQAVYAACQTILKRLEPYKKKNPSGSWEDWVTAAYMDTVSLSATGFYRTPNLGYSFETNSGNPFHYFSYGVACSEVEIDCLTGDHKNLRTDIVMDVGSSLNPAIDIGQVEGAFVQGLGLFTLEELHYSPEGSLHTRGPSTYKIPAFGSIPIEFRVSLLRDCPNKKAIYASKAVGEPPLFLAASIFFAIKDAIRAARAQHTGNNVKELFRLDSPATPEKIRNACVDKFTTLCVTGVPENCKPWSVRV

With `O=C(O)CC(O)(CC(=O)O)C(=O)O` [Citric acid], the “pH value of saliva” value was found to be 6.8 in assay [1] (testing time 0 minute); 6.45 in assay [1] (testing time 20 minute); 6.26 in assay [1] (testing time 60 minute); 6.6 in assay [1] (testing time 90 minute); 6.8 in assay [1] (testing time 120 minute). Also, in assay [2], the inhibition at 100000 µg/mL amounted to 100%. Besides, the “Histamine Releasing rate (%)” value in assay [2] amounted to 8.7%. The inhibition in vivo at 1 mg/ear in assay [3] is 100%. Besides, the IC50 in assay [4] was found to be 100 nM.
With `CN(C)CCOC(c1ccccc1)c1ccccc1` [Diphenhydramine hydrochloride, reference compound], in assay [2], the inhibition at 100000 µg/mL was 32.1% and the “Histamine Releasing rate (%)” value is given as 64.7%. Further, the inhibition in vivo at 1 mg/ear in assay [3] came out at 20%.
`Nc1nc2ncc(CNc3ccc(C(=O)N[C@@H](CCC(=O)O)C(=O)O)cc3)nc2c(=O)[nH]1` [Folic acid, reference compound]: in assay [4], the IC50 amounted to 662 nM.
With `O=C(O)/C=C/C(=O)O` [Fumaric acid], in assay [2], the inhibition at 100000 µg/mL amounted to 100% and the “Histamine Releasing rate (%)” value is listed as 8.9%. The inhibition in vivo at 1 mg/ear in assay [3] was found to be 98%. The IC50 in assay [4] was found to be 101 nM.
As for `CC(O)C(=O)O` (stereo not drawn) [Lactic acid], in assay [2], the inhibition at 100000 µg/mL is 100% and the “Histamine Releasing rate (%)” value amounted to 8.9%. In addition, the inhibition in vivo at 1 mg/ear in assay [3] came to 97%.
For `O=C(O)CC(O)C(=O)O` (stereo not drawn) [Malic acid], in assay [2], the inhibition at 100000 µg/mL was 100% and the “Histamine Releasing rate (%)” value was found to be 9.0%. For the same molecule, the inhibition in vivo at 1 mg/ear in assay [3] stood at 96%. Further, the IC50 in assay [4] came out at 112 nM.
For `O=C(O)C(O)C(O)C(=O)O` (stereo not drawn) [Tartaric acid], in that order: 100%, 8.9%, 97% and 102 nM.
`CC1(C)[C@@H](O[C@H]2O[C@H](C(=O)[O-])[C@@H](O)[C@H](O)[C@H]2O[C@@H]2O[C@H](C(=O)[O-])[C@@H](O)[C@H](O)[C@H]2O)CC[C@]2(C)[C@H]3C(=O)C=C4[C@@H]5C[C@@](C)(C(=O)[O-])CC[C@]5(C)CC[C@@]4(C)[C@]3(C)CC[C@@H]12.[Na+].[Na+].[Na+]` [Trisodium glycyrrhizinate, reference compound]: in assay [2], the “Depression rate (%)” value was 30.9% and the “Histamine Releasing rate (%)” value is reported as 65.5%.
With `O=C1O[C@H](CO)[C@@H](O)[C@H](O)[C@H]1O` [gluconolactone], in assay [2], the inhibition at 100000 µg/mL stood at 100% and the “Histamine Releasing rate (%)” value is recorded as 8.9%. Besides, the inhibition in vivo at 1 mg/ear in assay [3] is 97%.
As for `O=C(O)CO` [α-hydroxy ethanoic acid], in assay [2], the “Depression rate (%)” value was 100% and the “Histamine Releasing rate (%)” value came out at 9.0%. Further, the “Depression rate (%)” value in assay [3] was 98%.
Consider `CCCCCCC(O)C(=O)O` (stereo not drawn) [α-hydroxy octanoic acid], for which, in assay [2], the inhibition at 100000 µg/mL worked out at 100% and the “Histamine Releasing rate (%)” value is reported as 9.0%. Besides, the inhibition in vivo at 1 mg/ear in assay [3] was 94%.
